Consider three compounds from ChEMBL document CHEMBL1123838, “Analgesic dipeptide derivatives. 3. Synthesis and structure-activity relationships of o-nitrophenyl-modified analogues of the analgesic compound H-Lys-Trp(NPS)-OMe” (1987).

Type in all cases: functional
Assay [1] relates to Mus musculus. Put plainly: Tested for analgesic activity, using Tail-Flick test in Mice at the dose of 1 ug/mouse administered icv after 30 min.
For assay [2], the system named is Mus musculus. Put plainly: Tested for analgesic activity, using Tail-Flick test in Mice at the dose of 0.5 ug/mouse administered icv after 5 min. (In hot-plate and tail-flick tests a longer latency is read as antinociception.)
The test system of assay [3] is Mus musculus. Put plainly: Tested for analgesic activity, using Tail-Flick test in Mice at the dose of 2.5 ug/mouse administered icv after 30 min.
Assay [4] concerns Mus musculus. Nature of the assay: Tested for analgesic activity, using Tail-Flick test in Mice at the dose of 2.5 ug/mouse administered icv after 5 min.
Assay [5] concerns Mus musculus. Put plainly: Tested for analgesic activity, using Tail-Flick test in Mice at the dose of 0.5 ug/mouse administered icv after 60 min.
Assay [6] deals with Mus musculus. Put plainly: Tested for analgesic activity, using Tail-Flick test in Mice at the dose of 1 ug/mouse administered icv after 5 min.
Assay [7] deals with Mus musculus. Put plainly: Tested for analgesic activity, using Tail-Flick test in Mice at the dose of 1 ug/mouse administered icv after 60 min.
For assay [8], the system named is Mus musculus. Nature of the assay: Tested for analgesic activity, using Tail-Flick test in Mice at the dose of 2.5 ug/mouse administered icv after 60 min.
In assay [9] the test system is Mus musculus. Put plainly: Tested for analgesic activity, using Tail-Flick test in Mice at the dose of 0.5 ug/mouse administered icv after 30 min.
Assay [10] relates to Mus musculus. Put plainly: Tested for analgesic activity, using Tail-Flick test in Mice at the dose of 0.1 ug/mouse administered icv after 5 min.
Assay [11] concerns Mus musculus. Put plainly: Tested for analgesic activity, using Tail-Flick test in Mice at the dose of […] administered icv after 30 min.
The subject of assay [12] is Mus musculus. Put plainly: Tested for analgesic activity, using Tail-Flick test in Mice at the dose of 0.1 ug/mouse administered icv after 30 min.
Assay [13] has as its system Mus musculus. Nature of the assay: Tested for analgesic activity, using Tail-Flick test in Mice at the dose of 0.5 ug/mouse administered icv after 5 min.
For assay [14], the system named is Mus musculus. Put plainly: Tested for analgesic activity, using Tail-Flick test in Mice at the dose of 0.1 ug/mouse administered icv after 60 min.

Each structure is given as a SMILES string. Peptide text beside a SMILES is read from it.

For the compound `COC(=O)CCSn1cc(CC(NC(=O)C(N)CCCCN)C(=O)OC)c2ccccc21` (configuration not stated), the Change in assay [1] is listed as 7%; in assay [2], 11%; in assay [3], 15%; in [4], 16%; in assay [5] it was 9%; in assay [6] it was 15%. Further, the Change was 9% in assay [7], 0% in [8] and 10% in assay [9].

Consider `COC(=O)C(Cc1cn(Sc2ccccc2NC(C)=O)c2ccccc12)NC(=O)C(N)CCCCN` (configuration not stated), for which the Change is listed as 20% in assay [1]; 0% in assay [2]; 26% in assay [3]; 27% in assay [4]; 5% in assay [5]; 25% in assay [6]. Besides, the Change in assay [7] is 15%; in [8], 10%; in assay [9], -2%.

For `CSCC[C@H](N)C(=O)N[C@@H](C)C(=O)NCC(=O)NCC(=O)N[C@@H](Cc1ccc(O)cc1)C(N)=O` (H-MAGGY-NH2), the Change in [1] is 118%; in [10] it was 40%; in [11], 76%; in assay [5], 35%; in [12], 26%; in assay [13], 122%. Moreover, the Change was 210% in assay [6], 45% in assay [7] and -7% in assay [14].
